Target: human GPR120 (Homo sapiens (Human), UniProt Q5NUL3)
Assay: GPR120 pERK AlphaScreen SureFire assay (human GPR120 pERK assay)
Assay type: cell-based
Conditions: CHOA12 or CHO-K1 cells stably transfected with short form of human GPR120, 100% = 50 μM linolenic acid
Text: GPR120 activity was monitored by measuring phosphorylation of ERK (pERK), since G protein receptors are known to activate the ERK signaling cascade either directly and/or through recruitment of arrestin that serves as a scaffold for downstream signaling events.
GPR120 pERK AlphaScreen SureFire Assay
The human and mouse GPR120-mediated intracellular phosphorylated ERK assays were established using CHOA12 cells stably transfected with the short form of human or mouse GPR120 receptor. Cells were cultured in growth medium consisting of F-12 media (Invitrogen Cat. #11765) with 5% Charcoal/Dextran FBS (Invitrogen Cat. #12676-029), 500 μg/mL GENETICIN® (Life Technologies Cat. #10131-027) and 250 μg/mL Zeocin (Invitrogen Cat. #R250-01). Cells were cryo preserved at a concentration of 2×10^7 cells/mL, in 90% Charcoal/Dextran FBS and 10% DMSO, and frozen in liquid nitrogen at a low passage number.
For the pERK assay, 2×10^7 cells/mL cryopreserved human and mouse cells were thawed rapidly in a 37° C. water bath and added to a T-225 flask containing 50 mL growth medium. The flasks were placed in a tissue culture incubator overnight (37° C., 5% CO2). The next day, cells were harvested with trypsin (Gibco Cat. #25300-054), resuspended in serum-containing growth medium and counted using a Cellometer and volume adjusted to a concentration of 0.6×10^6 cells/mL. Cells were plated into 384-well clear bottom tissue culture plates (BD Cat. #353962) at 50 μL/well, for a density of 30,000 cells/well using a MULTIDROP® and incubated for 16-18 hours (overnight) at 37° C. with 5% CO2. The next day, cells were serum starved in 30 μL of F-12 media without any serum or antibiotics for 2 hours at 37° C.
Test compounds were 3-fold, 11-point serially diluted in DMSO in a REMP assay plate (Matrix Cat. #4307) by Tecan and 5 μL was transferred into an ECHO source plate (Labcyte Cat. #LC-0200). Cells were then stimulated with 50 nL of compound dilutions using ECHO liquid handler for 7 minutes at 37° C. Compounds ranged from final assay concentrations of 33.33 μM to 0.56 nM.
The media was then dumped and cells lysed with 20 μL of 1× Lysis buffer from the AlphaScreen SureFire Phospho-ERK 1/2 Kit (Perkin Elmer Cat. #6760617M). The lysis buffer was diluted 5-fold with water before use. The plate was agitated on a shaker for 10 minutes after which 2 μL was transferred into a 384-well white proxiplate (Perkin Elmer Cat. #6008289). The SureFire assay reagent mix was prepared by mixing 60 parts Reaction Buffer, 10 parts Activation Buffer, 1 part Donor Beads, 1 part Acceptor Beads (Perkin Elmer Cat. #TGRES10K). 3.5 μL/well of this reagent mix was manually added to the proxiplate with a multichannel pipettor. Plates were spun down at 1000 rpm for 2 minutes, followed by light-protected incubation at room temperature for 2 hours. The plates were read on the Alpha-technology compatible Envision multilabel plate reader using AlphaScreen protocol according to manufacturer's specifications. The agonist effect of compounds was expressed as 100×(average sample-average blank)/(average total−average blank) where sample is the luminescence activity in the presence of test compound, blank is equal to the luminescence activity in the presence of DMSO control and the total is signal induced by 50 μM linolenic acid as reference compound. Activation data for the test compound over a range of concentrations was plotted as percentage activation of the test compound (100%=maximum response). After correcting for background, EC50 values were determined. The EC50 is defined as the concentration of test compound which produces 50% of the maximal response and was quantified using the 4 parameter logistic equation to fit the data.
The human and mouse GPR120-mediated intracellular phosphorylated ERK assays were also established using CHO-K1 cells stably transfected with the short form of human or mouse GPR120 receptor. […]

human GPR120, sequence (Q5NUL3 whole entry): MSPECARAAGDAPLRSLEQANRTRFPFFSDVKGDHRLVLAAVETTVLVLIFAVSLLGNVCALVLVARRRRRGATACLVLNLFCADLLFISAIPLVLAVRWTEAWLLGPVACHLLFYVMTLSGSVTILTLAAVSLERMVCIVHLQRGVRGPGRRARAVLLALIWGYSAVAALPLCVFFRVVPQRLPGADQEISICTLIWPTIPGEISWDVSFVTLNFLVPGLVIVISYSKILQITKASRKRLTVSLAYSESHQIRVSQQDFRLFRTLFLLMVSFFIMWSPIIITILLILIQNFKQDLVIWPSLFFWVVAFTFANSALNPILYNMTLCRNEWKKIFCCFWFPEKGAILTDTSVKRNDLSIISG

## O=C(O)[C@H]1C[C@@H]1COc1ccc(C2CCCC(Oc3ccccc3)C2)cc1 (mixture of isomers) [Example 11, (1S,2S)-2-((4-((+/−)-3-Phenoxycyclohexyl)phenoxy)methyl)cyclopropanecarboxylic acid]
  EC50: 600 nM

## Cc1ccc(O[C@H]2CCC[C@@H](c3ccc(CCOCC(=O)O)cc3)C2)cc1F (racemic) [Example 34]
  EC50: 300 nM

## Cc1ccc(O[C@H]2CCC[C@@H](c3ccc(CCOCC(=O)O)cc3)C2)cn1 (racemic) [Example 35]
  EC50: 1610 nM

## Cc1ccc(O[C@H]2CCC[C@@H](c3ccc(CCOCC(=O)O)cc3)C2)cc1 (racemic) [Example 36]
  EC50: 310 nM

## O=C(O)COCCc1ccc([C@@H]2CCC[C@H](Oc3ccc(F)cc3)C2)cc1 (racemic) [Example 37]
  EC50: 4240 nM

## O=C(O)COCCc1ccc([C@@H]2CCC[C@H](Oc3ccc(Cl)cc3)C2)cc1 (racemic) [Example 38]
  EC50: 720 nM

## N#Cc1ccc(O[C@H]2CCC[C@@H](c3ccc(CCOCC(=O)O)cc3)C2)cc1 (racemic) [Example 39]
  EC50: 3240 nM

## O=C(O)[C@H]1C[C@@H]1CCc1ccc([C@@H]2CCC[C@@H](Oc3ccccc3)C2)cc1 (racemic) [Example 40]
  EC50: 3750 nM

## O=C(O)[C@@H]1C[C@H]1CCc1ccc([C@@H]2CCC[C@@H](Oc3ccccc3)C2)cc1 (racemic) [Example 41]
  EC50: 1940 nM

## O=C(O)[C@H]1C[C@@H]1COc1ccc([C@@H]2CCC[C@@H](Oc3ccccc3)C2)cc1 (racemic) [Example 42]
  EC50: > 32000 nM

## CC(C)O[C@H]1CCC[C@@H](c2ccc(OC[C@H]3C[C@@H]3C(=O)O)cc2)C1 (racemic) [Example 43]
  EC50: > 16000 nM

## O=C(O)CCCCc1ccc([C@@H]2CCC[C@H](Oc3ccccc3)C2)cc1 (single isomer, unassigned) [Example 1, 5-(4-((+/−)-3-Phenoxycyclohexyl)phenyl)pentanoic acid]
  EC50: 480 nM

## O=C(O)CCCCc1ccc([C@@H]2CCC[C@@H](Oc3ccccc3)C2)cc1 (single isomer, unassigned) [Example 2, 5-(4-((+/−)-3-Phenoxycyclohexyl)phenyl)pentanoic acid]
  EC50: 2360 nM

## CC(C)O[C@H]1CCC[C@@H](c2ccc(CCCCC(=O)O)cc2)C1 (single isomer, unassigned) [Example 3, 5-(4-((+/−)-3-Isopropoxycyclohexyl)phenyl)pentanoic acid]
  EC50: 1160 nM

## O=C(O)COCCc1ccc([C@@H]2CCC[C@H](Oc3ccccc3)C2)cc1 (single isomer, unassigned) [Example 4, 2-(4-((+/−)-3-Phenoxycyclohexyl)phenethoxy)acetic acid]
  EC50: 320 nM

## O=C(O)COCCc1ccc([C@H]2CCC[C@@H](Oc3ccccc3)C2)cc1 (single isomer, unassigned) [Example 5]
  EC50: 1030 nM

## O=C(O)COCCc1ccc([C@@H]2CCC[C@H](Oc3ccccc3)C2)cc1 (single isomer, unassigned) [Example 6]
  EC50: 180 nM

## O=C(O)[C@H]1C[C@@H]1CCc1ccc([C@@H]2CCC[C@H](Oc3ccccc3)C2)cc1 (single isomer, unassigned) [Example 7]
  EC50: 920 nM

## O=C(O)[C@H]1C[C@@H]1CCc1ccc([C@H]2CCCC(Oc3ccccc3)C2)cc1 (single isomer, unassigned) [Example 8]
  EC50: 1450 nM

## O=C(O)[C@H]1C[C@@H]1CCc1ccc([C@@H]2CCCC(Oc3ccccc3)C2)cc1 (single isomer, unassigned) [Example 9]
  EC50: 650 nM

## O=C(O)[C@@H]1C[C@H]1CCc1ccc([C@@H]2CCC[C@H](Oc3ccccc3)C2)cc1 (single isomer, unassigned) [Example 10]
  EC50: 530 nM

## O=C(O)CCCCc1ccc(C2CCCCC(Oc3ccccc3)C2)cc1 (single isomer, unassigned) [Example 12, 5-(4-(3-Phenoxycycloheptyl)phenyl)pentanoic acid]
  EC50: 310 nM

## O=C(O)CCCCc1ccc(C2CCCCC(Oc3ccccc3)C2)cc1 (single isomer, unassigned) [Example 13, 5-(4-(3-Phenoxycycloheptyl)phenyl)pentanoic acid]
  EC50: 1030 nM

## O=C(O)COCCc1ccc(C2CCCCC(Oc3ccccc3)C2)cc1 (single isomer, unassigned) [Example 15, 2-(4-(3-Phenoxycycloheptyl)phenethoxy)acetic acid]
  EC50: 1990 nM

## O=C(O)COCCc1ccc(C2CCCCC(Oc3ccccc3)C2)cc1 (single isomer, unassigned) [Example 16, 2-(4-(3-Phenoxycycloheptyl)phenethoxy)acetic acid]
  EC50: 750 nM

## O=C(O)COCCc1ccc(C2CCCCC(Oc3ccccc3)C2)cc1 (single isomer, unassigned) [Example 17, 2-(4-(3-Phenoxycycloheptyl)phenethoxy)acetic acid]
  EC50: 270 nM

## O=C(O)[C@@H]1C[C@@H]1COc1ccc(N2CCCC(Oc3ccccc3)C2)cc1 (single isomer, unassigned) [Example 28, (+/−)-2-((4-(3-Phenoxypiperidin-1-yl)phenoxy)methyl)cyclopropanecarboxylic acid]
  EC50: 4980 nM

## O=C(O)COCCc1ccc(C2CCCCC(Oc3ccccc3)C2)cc1 (stereo not shown) [Example 14, 2-(4-(3-Phenoxycycloheptyl)phenethoxy)acetic acid]
  EC50: 630 nM

## O=C(O)CCCCc1ccc(C2CCC(Oc3ccccc3)C2)cc1 (stereo not shown) [Example 18, 5-(4-(3-Phenoxycyclopentyl)phenyl)pentanoic acid]
  EC50: 1380 nM

## O=C(O)COCCc1ccc(C2CCC(Oc3ccccc3)C2)cc1 (stereo not shown) [Example 19, 2-(4-(3-Phenoxycyclopentyl)phenethoxy)acetic acid]
  EC50: 2130 nM

## O=C(O)CCCCc1ccc(N2CCC[C@H](Oc3ccccc3)C2)cc1 [Example 23, (S)-5-(4-(3-Phenoxypiperidin-1-yl)phenyl)pentanoic acid]
  EC50: 500 nM

## O=C(O)CCCCc1ccc(N2CCC[C@H](Oc3ccc(F)cc3)C2)cc1 [Example 24, (S)-5-(4-(3-(4-Fluorophenoxy)piperidin-1-yl)phenyl)pentanoic acid]
  EC50: 930 nM

## O=C(O)CCCCc1c(F)cc(N2CCC[C@H](Oc3ccccc3)C2)cc1F [Example 25, (S)-5-(2,6-Difluoro-4-(3-phenoxypiperidin-1-yl)phenyl)pentanoic acid]
  EC50: 540 nM

## O=C(O)CCCCc1ccc(N2CCC[C@H](Oc3ccccc3)C2)cc1F [Example 26, (S)-5-(2-Fluoro-4-(3-phenoxypiperidin-1-yl)phenyl)pentanoic acid]
  EC50: 570 nM

## O=C(O)COCCCc1ccc(N2CCCC(Oc3ccccc3)C2)cc1 (stereo not shown) [Example 27, 2-(3-(4-(3-Phenoxypiperidin-1-yl)phenyl)propoxy)acetic acid]
  EC50: 4130 nM

## O=C(O)CCCCc1ccc(C2CCCCC(Oc3ccc(Cl)cc3)C2)cc1 (stereo not shown) [Example 44]
  EC50: 530 nM

## O=C(O)CCCCc1ccc(C2CCCCC(Oc3cccc(Cl)c3)C2)cc1 (stereo not shown) [Example 45]
  EC50: 2020 nM

## O=C(O)CCCCc1ccc(C2CCCCC(Oc3ccccc3Cl)C2)cc1 (stereo not shown) [Example 46]
  EC50: 3120 nM

## CC(C)OC1CCC(c2ccc(CCCCC(=O)O)cc2)C1 (stereo not shown) [Example 47]
  EC50: 3770 nM

## O=C(O)[C@H]1C[C@@H]1CCc1ccc(N2CCC[C@@H](Oc3ccccc3)C2)cc1 [Example 48]
  EC50: 3220 nM

## O=C(O)[C@H]1C[C@@H]1CCc1ccc(N2CCC[C@H](Oc3ccccc3)C2)cc1 [Example 49]
  EC50: 1310 nM

## O=C(O)[C@@H]1C[C@H]1CCc1ccc(N2CCC[C@@H](Oc3ccccc3)C2)cc1 [Example 50]
  EC50: 410 nM

## O=C(O)[C@@H]1C[C@H]1CCc1ccc(N2CCC[C@H](Oc3ccccc3)C2)cc1 [Example 51]
  EC50: 1900 nM
